Assay results published in PMC9306661 (British Journal of Pharmacology, 2021).

Columns and labels:
Pun-AVR-14B/GLC-2 = target: T1, Pun-AVR-14B/GLC-2 (Parascaris univalens, UniProt A0A894K7G1+A0A894KE58); assay: two-electrode voltage clamp, Xenopus oocytes; assay type: cell-based
T1 sequence (A0A894K7G1 19-428): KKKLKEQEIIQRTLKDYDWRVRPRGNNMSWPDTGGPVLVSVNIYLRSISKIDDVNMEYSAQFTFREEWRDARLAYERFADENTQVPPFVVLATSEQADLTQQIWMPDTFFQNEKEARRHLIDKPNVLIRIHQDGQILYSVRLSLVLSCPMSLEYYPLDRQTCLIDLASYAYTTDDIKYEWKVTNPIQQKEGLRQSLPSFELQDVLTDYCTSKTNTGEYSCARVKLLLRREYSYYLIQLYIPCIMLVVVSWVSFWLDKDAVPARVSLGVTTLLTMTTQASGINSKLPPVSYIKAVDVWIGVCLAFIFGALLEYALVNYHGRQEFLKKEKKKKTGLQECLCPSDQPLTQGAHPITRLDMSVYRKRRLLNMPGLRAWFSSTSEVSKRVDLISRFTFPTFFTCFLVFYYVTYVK
T1 sequence (A0A894KE58 21-448): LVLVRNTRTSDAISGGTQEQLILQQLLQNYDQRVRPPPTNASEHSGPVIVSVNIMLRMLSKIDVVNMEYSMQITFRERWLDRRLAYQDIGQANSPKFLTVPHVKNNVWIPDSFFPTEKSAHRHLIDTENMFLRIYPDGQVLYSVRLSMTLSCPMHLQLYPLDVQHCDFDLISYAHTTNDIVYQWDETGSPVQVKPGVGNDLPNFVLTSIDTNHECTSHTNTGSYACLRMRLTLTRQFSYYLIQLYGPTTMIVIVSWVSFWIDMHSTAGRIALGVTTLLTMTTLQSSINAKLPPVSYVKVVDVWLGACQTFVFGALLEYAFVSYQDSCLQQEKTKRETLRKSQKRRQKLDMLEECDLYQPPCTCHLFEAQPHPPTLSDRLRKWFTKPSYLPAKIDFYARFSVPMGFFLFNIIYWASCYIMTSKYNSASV

Cel-AVR-14B/GLC-2 = target: T2, Cel-AVR-14B/GLC-2 (Caenorhabditis elegans, UniProt Q17328+Q17369); assay: two-electrode voltage clamp, Xenopus oocytes; assay type: cell-based
T2 sequence (Q17369 22-430): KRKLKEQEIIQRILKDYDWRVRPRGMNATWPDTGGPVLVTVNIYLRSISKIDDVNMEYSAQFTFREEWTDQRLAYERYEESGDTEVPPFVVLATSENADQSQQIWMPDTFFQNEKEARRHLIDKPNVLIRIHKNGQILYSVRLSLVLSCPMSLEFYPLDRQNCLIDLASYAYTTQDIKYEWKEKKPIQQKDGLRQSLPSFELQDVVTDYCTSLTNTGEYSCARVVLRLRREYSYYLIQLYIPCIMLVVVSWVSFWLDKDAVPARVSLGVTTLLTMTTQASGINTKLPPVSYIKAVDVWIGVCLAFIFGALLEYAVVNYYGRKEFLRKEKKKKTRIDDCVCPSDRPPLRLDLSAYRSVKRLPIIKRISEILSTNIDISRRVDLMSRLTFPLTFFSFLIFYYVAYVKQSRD
T2 sequence (Q17328 23-434): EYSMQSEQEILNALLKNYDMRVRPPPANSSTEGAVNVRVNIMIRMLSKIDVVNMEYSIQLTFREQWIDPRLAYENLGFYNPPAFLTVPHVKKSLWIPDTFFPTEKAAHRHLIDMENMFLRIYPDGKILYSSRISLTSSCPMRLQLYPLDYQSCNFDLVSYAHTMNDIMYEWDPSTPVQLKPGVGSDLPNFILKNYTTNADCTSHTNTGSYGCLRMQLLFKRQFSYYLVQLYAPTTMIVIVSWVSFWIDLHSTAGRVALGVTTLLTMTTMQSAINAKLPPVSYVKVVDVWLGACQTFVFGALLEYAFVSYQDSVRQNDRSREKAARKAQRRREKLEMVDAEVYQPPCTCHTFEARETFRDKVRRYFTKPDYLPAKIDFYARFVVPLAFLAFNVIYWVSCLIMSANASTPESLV

EC50 (Pun-AVR-14B/GLC-2): 10.9 µM
EC50 (Cel-AVR-14B/GLC-2): 19.4 µM
SMILES: N[C@@H](CCC(=O)O)C(=O)O [glutamate]
